Data set [1] addresses ErbB4 (Homo sapiens, UniProt Q15303). The data set can be described thus: ELISA-based erbB kinase assay (ErbB4). It counts as biochemical. The settings on record: GST-erbB4 cytoplasmic fusion protein, 20 uM ATP, poly-Glu-Tyr substrate. From the text: (§1) ErbB1, erbB2 and erbB4 cytoplasmic fusion proteins were made by cloning the erbB1 sequence (Met-668 to Ala1211), erbB2 (Ile-675 to Val-1256) and erbB4 sequence (Gly-259 to Gly-690) into the baculoviral vector pFastBac using Polymerase Chain Reaction (PCR). Proteins were expressed in Baculovirus-infected Sf9 insect cells as Glutathione S-Transferase (GST) fusion proteins. The proteins were purified by affinity chromatography using glutathione sepharose beads.
(§2) Inhibition of erbB tyrosine kinase activity was assessed using an ELISA-based receptor tyrosine kinase assay. Kinase reactions (50 mM HEPES, pH 7.4, 125 mM NaCl, 10 mM MgCl2, 100 μM sodium orthovanadate, 2 mM dithiothreitol, 20 uM ATP, test compound or vehicle control and 1-5 nM GST-erbB per 50 uL reaction) were run in 96-well plates coated with 0.25 mg/ml poly-Glu-Tyr (Sigma). The reactions were incubated for 6 minutes at room temperature while shaking. Kinase reactions were stopped by removal of reaction mixture, then wells were washed with wash buffer comprising 3% Bovine Serum Albumin and 0.1% Tween 20 in Phosphate Buffered Saline (PBS). Phosphorylated tyrosine residues were detected by adding 0.2 μg/ml anti-phosphotyrosine antibody (Oncogene Ab-4; 50 μL/well) coupled to Horse Radish Peroxidase (HRP) for 25 minutes while shaking at room temperature. The antibody was removed, and plates were washed (3% BSA and 0.1% Tween 20 in PBS). HRP substrate 3,3′,5,5′-tetramethylbenzidene (SureBlueTMB, Kirkegaard & Perry Labs) was added (50 μL per well) and incubated for 10-20 minutes while shaking at room temperature. The TMB reaction was stopped with the addition of 50 μL stop solution (0.09 N H2SO4). The signal was quantified by measuring absorbance at 450 nm. IC50 values were determined for test compounds using Microsoft Excel.
(In an ELISA, binding on a coated surface is turned into a signal by an enzyme label.)

In data set [2] the target is ErbB2 (Homo sapiens (Human), UniProt P04626). The data set is described as follows: ELISA-based erbB kinase assay (ErbB2). The settings on record: GST-erbB2 cytoplasmic fusion protein, 20 uM ATP, poly-Glu-Tyr substrate. It is filed as biochemical.
Sequence of ErbB2 (P04626 675-1255 limits assumed): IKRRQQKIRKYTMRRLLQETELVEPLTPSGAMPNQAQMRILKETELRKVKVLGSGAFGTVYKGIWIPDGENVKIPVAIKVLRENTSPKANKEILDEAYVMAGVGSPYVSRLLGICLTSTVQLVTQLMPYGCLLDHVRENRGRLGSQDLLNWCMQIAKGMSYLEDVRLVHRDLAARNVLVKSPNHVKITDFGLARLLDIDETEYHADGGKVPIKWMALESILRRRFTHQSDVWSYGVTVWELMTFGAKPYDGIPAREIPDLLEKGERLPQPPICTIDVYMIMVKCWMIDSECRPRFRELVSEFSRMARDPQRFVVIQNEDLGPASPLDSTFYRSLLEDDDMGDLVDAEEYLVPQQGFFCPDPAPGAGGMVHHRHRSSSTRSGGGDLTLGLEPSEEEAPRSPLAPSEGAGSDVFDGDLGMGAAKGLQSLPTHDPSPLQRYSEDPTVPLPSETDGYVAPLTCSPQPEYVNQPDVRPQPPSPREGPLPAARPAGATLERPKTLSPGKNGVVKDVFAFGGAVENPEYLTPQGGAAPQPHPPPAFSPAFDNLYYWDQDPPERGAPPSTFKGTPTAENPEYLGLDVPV
Text: as §1, §2

Data set [3] concerns the target ErbB1 (Homo sapiens (Human), UniProt P00533). The data set is described as follows: ELISA-based erbB kinase assay (ErbB1). It counts as biochemical. Conditions: GST-erbB1 cytoplasmic fusion protein, 20 uM ATP, poly-Glu-Tyr substrate.
Text: as §1, §2

A short description of data set [4]: Aqueous solubility. It counts as physicochemical.

≈ marks a conversion by molar mass, not a printed value.

Sequence of ErbB1 (P00533 668-1210 limits assumed): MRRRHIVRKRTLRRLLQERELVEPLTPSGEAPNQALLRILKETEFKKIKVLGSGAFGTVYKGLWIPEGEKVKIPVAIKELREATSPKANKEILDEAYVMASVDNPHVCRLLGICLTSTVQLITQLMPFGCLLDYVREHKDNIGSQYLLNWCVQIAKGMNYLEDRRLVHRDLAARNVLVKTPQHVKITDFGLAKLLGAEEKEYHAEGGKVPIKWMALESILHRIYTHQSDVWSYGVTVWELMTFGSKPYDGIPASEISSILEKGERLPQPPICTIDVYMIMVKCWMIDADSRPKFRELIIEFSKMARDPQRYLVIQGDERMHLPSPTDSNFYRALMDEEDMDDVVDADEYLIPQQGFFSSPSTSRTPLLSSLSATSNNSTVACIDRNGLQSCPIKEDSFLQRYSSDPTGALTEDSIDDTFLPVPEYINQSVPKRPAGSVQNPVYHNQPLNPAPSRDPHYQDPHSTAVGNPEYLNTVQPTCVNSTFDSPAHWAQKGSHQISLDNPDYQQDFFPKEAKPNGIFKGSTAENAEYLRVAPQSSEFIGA
Sequence of ErbB4 (Q15303 26-1308 limits assumed): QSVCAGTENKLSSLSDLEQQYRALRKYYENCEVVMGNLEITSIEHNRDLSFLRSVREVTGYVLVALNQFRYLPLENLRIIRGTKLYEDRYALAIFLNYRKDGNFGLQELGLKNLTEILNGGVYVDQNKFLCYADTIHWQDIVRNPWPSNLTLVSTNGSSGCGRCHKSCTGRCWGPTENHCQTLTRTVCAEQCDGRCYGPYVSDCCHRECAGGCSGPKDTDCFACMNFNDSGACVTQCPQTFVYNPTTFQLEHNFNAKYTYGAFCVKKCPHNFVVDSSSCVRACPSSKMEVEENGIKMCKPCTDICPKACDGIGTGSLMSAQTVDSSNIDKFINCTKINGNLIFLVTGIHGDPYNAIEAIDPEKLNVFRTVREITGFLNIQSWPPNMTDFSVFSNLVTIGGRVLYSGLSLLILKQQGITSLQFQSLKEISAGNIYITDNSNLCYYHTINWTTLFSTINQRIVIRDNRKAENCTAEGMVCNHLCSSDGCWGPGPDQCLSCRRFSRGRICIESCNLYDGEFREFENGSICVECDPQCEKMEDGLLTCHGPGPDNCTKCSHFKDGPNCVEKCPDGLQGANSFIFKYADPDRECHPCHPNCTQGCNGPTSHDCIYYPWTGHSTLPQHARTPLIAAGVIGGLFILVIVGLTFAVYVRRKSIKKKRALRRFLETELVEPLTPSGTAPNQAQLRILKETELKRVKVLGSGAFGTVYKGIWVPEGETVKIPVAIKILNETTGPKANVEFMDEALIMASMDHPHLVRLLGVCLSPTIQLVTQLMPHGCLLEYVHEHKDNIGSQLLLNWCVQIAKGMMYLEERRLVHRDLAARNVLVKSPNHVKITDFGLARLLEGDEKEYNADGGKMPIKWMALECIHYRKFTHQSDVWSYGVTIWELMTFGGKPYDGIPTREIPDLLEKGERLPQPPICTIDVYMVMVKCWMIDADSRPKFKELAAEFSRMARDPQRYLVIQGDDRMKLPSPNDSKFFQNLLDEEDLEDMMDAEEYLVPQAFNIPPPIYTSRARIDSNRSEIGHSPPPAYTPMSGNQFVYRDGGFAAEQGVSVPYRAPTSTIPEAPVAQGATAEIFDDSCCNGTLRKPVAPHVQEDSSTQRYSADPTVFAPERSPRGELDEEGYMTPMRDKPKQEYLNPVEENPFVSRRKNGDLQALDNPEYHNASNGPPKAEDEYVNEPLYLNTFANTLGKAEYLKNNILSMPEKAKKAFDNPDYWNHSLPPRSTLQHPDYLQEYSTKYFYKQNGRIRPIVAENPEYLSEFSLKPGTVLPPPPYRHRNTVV

Turning to `COc1cc2ncnc(Nc3ccc(F)c(Cl)c3)c2cc1NC(=O)/C=C/CN1CCCCCC1` [Example No. 10, 4-Azepan-1-yl-but-2-enoic acid [4-(3-chloro-4-fluoro-phenylamino)-7-methoxy-quinazolin-6-yl]-amide], the IC50 came to 41.3 nM in data set [1], 86 nM in data set [2] and 12.1 nM in data set [3].
Regarding `O=C(/C=C/CN1CCCCC1)Nc1cc2c(Nc3ccc(F)c(Cl)c3)ncnc2cc1OCC(F)F` [Example No. 6, 4-Piperidine-1-yl-but-2-enoic acid [4-(3-chloro-4-fluoro-phenylamino)-7-(2,2-difluoro-ethoxy)-quinazolin-6-yl]-amide], the 50% inhibitory concentration (IC50) is 154 nM in data set [1], 244 nM in data set [2] and 9.87 nM in data set [3].
For the molecule `COc1cc2ncnc(Nc3ccc(F)c(Cl)c3)c2cc1NC(=O)/C=C/CN1CCC(F)CC1` [Example No. 9, 4-(4-Fluoro-piperidin-1-yl)-but-2-enoic acid [4-(3-chloro-4-fluoro-phenylamino)-7-methoxy-quinazolin-6-yl]-amide], the results for the half-inhibitory concentration (IC50) in data set [1] and in data set [2] were 147 nM and 247 nM, respectively.
Consider `O=C(/C=C/CN1CCCCC1)Nc1cc2c(Nc3ccc(F)c(Cl)c3)ncnc2cc1OCCCN1CCOCC1` [Example No. 7, 4-Piperidin-1-yl-but-2-enoic acid [4-(3-chloro-4-fluoro-phenylamino)-7-(3-morpholin-4-yl-propoxy)-quinazolin-6-yl]-amide], for which the 50% inhibitory concentration (IC50) in data set [1] turned out to be 61.5 nM; in data set [3], 11.3 nM.
For the molecule `COc1cc2ncnc(Nc3ccc(F)c(Cl)c3)c2cc1NC(=O)/C=C/CN1CCCC(F)C1` (centres unmarked) [Example No. 8, 4-(3-Fluoro-piperidin-1-yl)-but-2-enoic acid [4-(3-chloro-4-fluoro-phenylamino)-7-methoxy-Quinazolin-6-yl]-amide], the IC50 was found to be 234 nM in data set [1], 212 nM in data set [2] and 45.3 nM in data set [3].
On to `O=C(/C=C/CN1CCCCC1)Nc1cc2c(Nc3ccc(F)c(Cl)c3)ncnc2cc1OCCF` [Example No. 1, 4-Piperidin-1-yl-but-2-enoic acid [4-(3-chloro-4-fluoro-phenylamino)-7-(2-fluoro-ethoxy)-quinazolin-6-yl]-amide], for which the half-inhibitory concentration (IC50) in data set [1] was 77.5 nM; in data set [3], 6.44 nM.
`COc1cc2ncnc(Nc3ccc(F)c(Cl)c3)c2cc1NC(=O)/C=C/CN1CCCCC1` [Example No. 2, 4-Piperidin-1-yl-but-2-enoic acid [4-(3-chloro-4-fluoro-phenylamino)-7-methoxy-quinazolin-6-yl]-amide]: in data set [4] (aqueous medium, pH 6.3, aqueous buffer), the solubility was ~10 µg/mL (≈ 21.3 µM). Also, the “change of aqueous solubility with pH” value in data set [4] (at lower pHs (than 6.3)) was “increases”.

As a reminder, the IC50 is the concentration at which inhibition is half-maximal. A low value points to inhibition by little substance. By solubility is commonly meant how much of the substance goes into solution per volume. Low values mean little dissolved substance, high ones much dissolved substance.

Values taken from US8623883B2, “4-phenylamino-quinazolin-6-yl-amides” (Warner-Lambert Company LLC, priority 2004, dated 2014).
